Results: ChEMBL document CHEMBL4130576, “Cephanolides A-J, Cephalotane-Type Diterpenoids from Cephalotaxus sinensis” (J Nat Prod, 2017)
Counter-ions that a name gives are not always drawn.

Assays:
HL-60 [1] = assay: Cytotoxicity against human HL60 cells assessed as inhibition of cell viability at 10 uM by MTT assay relative to control; assay type: functional
KB [2] = assay: Cytotoxicity against human KB cells assessed as inhibition of cell viability at 10 uM by SRB assay relative to control; assay type: functional
A549 [3] = assay: Cytotoxicity against human A549 cells assessed as inhibition of cell viability at 10 uM by SRB assay relative to control; assay type: functional
HT-29 [4] = assay: Cytotoxicity against human HT-29 cells assessed as inhibition of cell viability at 10 uM by SRB assay relative to control; assay type: functional
HL-60 [5] = assay: Cytotoxicity against human HL60 cells by MTT assay; assay type: functional, cell-based
KB [6] = assay: Cytotoxicity against human KB cells by SRB assay; assay type: functional, cell-based
HT-29 [7] = assay: Cytotoxicity against human HT-29 cells by SRB assay; assay type: functional, cell-based
A549 [8] = assay: Cytotoxicity against human A549 cells by SRB assay; assay type: functional, cell-based

Structure (SMILES) | inhibition at 10 µM (HL-60 [1]) [%] | inhibition at 10 µM (KB [2]) [%] | inhibition at 10 µM (A549 [3]) [%] | inhibition at 10 µM (HT-29 [4]) [%] | IC50 (HL-60 [5]) [nM] | IC50 (KB [6]) [nM] | IC50 (HT-29 [7]) [nM] | IC50 (A549 [8]) [nM]
Cc1ccc2c3c1C[C@@H]1[C@@H]4C[C@@H](C)C(CC2=O)(C(=O)O4)[C@]31O | < 50 | < 50 | < 50 | < 50 | – | – | – | –
CC1=C[C@H]2C[C@]3(CCC45C(=O)O[C@@H](C[C@H]4C)[C@H]4C[C@H]1[C@@H]3[C@H]45)CO2 | < 50 | < 50 | < 50 | < 50 | – | – | – | –
Cc1c(O)cc2c3c1[C@@H]1O[C@H]4C5OC(=O)C(CC2)([C@@H]4C)[C@H]3[C@@H]51 | < 50 | < 50 | < 50 | < 50 | – | – | – | –
C[C@@H]1C[C@@H]2OC(=O)C13CC[C@]14C[C@H](C=C(CO)[C@H]5C[C@H]2[C@H]3[C@@H]51)OC4=O | < 50 | < 50 | < 50 | < 50 | – | – | – | –
C=C1[C@H](O)CC[C@@]2(CO)CCC34C(=O)O[C@@H](C[C@H]3C)[C@H]3C[C@H]1[C@@H]2[C@H]34 | < 50 | < 50 | < 50 | < 50 | – | – | – | –
Cc1cc(=O)cc2c3c1C[C@@H]1[C@@H]4C[C@@H](C)C(CC2)(C(=O)O4)[C@]31O | – | – | – | – | 1240 | 2650 | 3220 | 6090
Cc1c(O)cc2c3c1C[C@@H]1[C@@H]4C[C@@H](C)C(CC2)(C(=O)O4)[C@H]31 | < 50 | < 50 | < 50 | < 50 | – | – | – | –
Cc1cc(=O)cc2c3c1[C@@H]1O[C@H]4C5OC(=O)C(CC2)([C@@H]4C)[C@H]3[C@@]51O | – | – | – | – | 464 | 964 | 817 | 1330
Cc1cc(=O)cc2c3c1C[C@@H]1[C@@H]4C[C@@H](C)C(C=C2)(C(=O)O4)[C@]31O | < 50 | < 50 | < 50 | < 50 | – | – | – | –
COC(=O)c1cc(C)c2c3c1C(=O)CC14C(=O)O[C@@H](C[C@H]1C)[C@@H](C2)[C@@]34O | < 50 | < 50 | < 50 | < 50 | – | – | – | –
COc1cccc2c1C(=O)c1c(O)c3c(c(O)c1C2=O)C[C@@](O)(C(=O)CO)C[C@@H]3O[C@H]1C[C@H](N)[C@H](O)[C@H](C)O1 [DOXORUBICIN HYDROCHLORIDE] | – | – | – | – | 76 | 570 | 559 | –
CC1=CCC[C@@]2(CO)CCC34C(=O)O[C@@H](C[C@H]3C)[C@H]3C[C@H]1[C@@H]2[C@H]34 | < 50 | < 50 | < 50 | < 50 | – | – | – | –
C[C@@H]1C[C@@H]2OC(=O)C13CC[C@@]14C[C@@H](OC1=O)[C@H](O)[C@](C)(O)C1=C4[C@@H]3[C@@H]2C1 | < 50 | < 50 | < 50 | < 50 | – | – | – | –
